Assay results from patent US6958352B2, “Compounds for inhibiting insulin secretion and methods related thereto” (SmithKline Beecham Corporation, priority 2002, dated 2005).

Tests used:
[1] = system: rat pancreatic islet cells; assay: Insulin secretion by rat pancreatic islet cells (FIG. 2); format: cell-based; conditions: basal (5 mM) or supraphysiological (8 mM) glucose
[2] = system: Pancreatic islets of Langerhans; assay: Glucose-stimulated insulin secretion (GSIS) by isolated pancreatic islets, insulin ELISA; format: cell-based, rat; conditions: concentration of 1 μM
Procedure: Pancreatic islets of Langerhans were isolated from adult male Sprague-Dawley rats using a standard collagenase infusion and digestion procedure as described in Example 16. Islets were cultured at 37° C. for 1-2 days in CMRL-1066 medium supplemented with 5.5 mM glucose, 10% fetal bovine serum, 100 U/ml penicillin and 100 μg/ml streptomycin, in a humidified atmosphere containing 5% CO2. Islets were manually picked and washed in Krebs Ringer Bicarbonate buffer (KRB: 134 mM NaCl, 4.7 mM KCl, 1.2 mM KH2PO4, 1.2 mM MgSO4, 1 mM CaCl2, 10 mM NaHCO3, pH 7.4) in preparation for measurement of glucose-stimulated insulin secretion (GSIS). […] Cell-conditioned media samples were then collected by centrifugation and their insulin content was determined using enzyme-linked immunosorbent assay (ELISA) kits (CrystalChem or ALPCO rat insulin ELISA) according to the kit supplier's instructions. Following treatment with a preferred compound, the concentration of insulin detected in the islet-conditioned medium was at least 1.5 times the insulin concentration detected in the medium conditioned by islets that were exposed to 8 mM glucose.
At a concentration of 1 μM, CGP37157 stimulated islet GSIS by 222 (±48) % relative to GSIS detected with 8 mM glucose. […]

[3] = system: INS-1 rat insulinoma cells; assay: Insulin secretion by INS-1 cells, insulin radioimmunoassay; format: cell-based; conditions: 8 mM glucose vs basal; FIG. 1
Procedure: INS-1 rat insulinoma cells were provided by Prof. Claes Wollheim, University Medical Centre, Geneva, Switzerland, and cultured at 37° C. in a humidified 5% CO2 environment in RPMI cell culture media (Gibco BRL, Gaithersburg, Md.) supplemented with 10% fetal bovine serum (Irvine Scientific, Irvine, Calif.), 2 mM L-glutamine, 100 U/ml penicillin, 100 μg/ml streptomycin, 10 mM HEPES, 1 mM sodium pyruvate and 50 μM β-mercaptoethanol (all reagents Sigma, St. Louis, Mo., unless otherwise noted).
INS-1 cells were seeded into 24-well plates containing RPMI media supplemented as described at 0.5×10^6 cells/well and cultured at 37° C., 5% CO2 for 2 days. Cells at or near confluence (0.7×10^6 cells/well) were rinsed with glucose-free KRH buffer (134 mM NaCl, 4.7 mM KCl, 1.2 mM KH2PO4, 1.2 mM MgSO4, 1.0 mM CaCl2, 10 mM HEPES-pH 7.4, 25 mM NaHCO3, 0.5% BSA), then incubated in the same buffer for 1 hr at 37° C. in a humidified 5% CO2/95% air atmosphere. […] Insulin concentrations in the supernatants were measured and normalized to cell number using an insulin-specific radioimmunoassay kit (ICN Biochemicals, Irvine, Calif.) according to the manufacturer's instructions.

O=C1CSC(c2ccccc2Cl)c2cc(Cl)ccc2N1 (stereo not drawn) [CGP37157, 7-Chloro-5-(2-chlorophenyl)-1,5-dihydro-4,1-benzothiazepin-2(3H)-one]
glucose stimulated insulin secretion on rat pancreatic islet cells [1]: enhanced glucose stimulated insulin secretion
stimulated islet GSIS relative to GSIS detected with 8 mM glucose [2]: 222 (±48) %
glucose stimulated insulin secretion by INS-1 cells [3]: enhanced glucose stimulated insulin secretion
